The text below walks through data of US11299485B2, “Thiophene derivative and use thereof” (FUJIMOTO CO., LTD., priority 2018, dated 2022).

Common to all, as to type: cell-based
The test system of one experiment is TNF-α production. Put plainly: Human TNF-α production suppression test (LPS-stimulated peripheral blood mononuclear cells, ELISA). As to conditions: PBMC, compound 10 μg/mL, 24 hr, control well = 100, read-out: TNF-α production suppressive rate (%). Here is the method:
Example 50: Human TNF-α Production Suppression Test
Peripheral blood of a healthy adult was collected in a vacuum blood collection tube (Terumo, containing EDTA/2Na), and then diluted two-fold with an equal volume of OTSUKA NORMAL SALINE (Otsuka Pharmaceutical Co., Ltd.). The diluted blood was mixed with Lymphoprep (AXIS-SHIELD) in half the volume of the diluted blood, dispensed into a 15 mL conical tube, and centrifuged at room temperature for 20 min (2,100 rpm). The mononuclear cells accumulated at the interface between Lymphoprep and plasma was transferred to a 50 mL conical tube, diluted with OTSUKA NORMAL SALINE, and the mononuclear cells suspension was centrifuged at room temperature for 10 min (1,150 rpm) and then the supernatant was removed. The mononuclear cells fraction obtained as a precipitate was suspended in an appropriate amount of 10% fetal calf serum (Thermo Fisher Scientific)-containing RPMI1640 medium (Thermo Fisher Scientific, hereinafter abbreviated as medium A), and diluted as appropriate with 0.4% trypan blue solution (Sigma-Aldrich Co. LLC.). The number of viable cells was counted with a hemocytometer (ERMA INC.). It was diluted with medium A such that the value obtained was 5×10^5 cells/mL. On the other hand, 75 μL of medium A, 5 μL of 0.4 mg/mL test compound solution (DMSO solution 10-fold diluted with medium A), and 20 μL of 10 μg/mL lipopolysaccharide (Sigma-Aldrich Co. LLC.) solution (diluted with medium A) were each added in advance to the same well of a Falcon 96-well flat bottom plate (Corning Incorporated), and the above-mentioned cell suspension was dispensed at 0.1 mL/well. 5 μL of DMSO diluted 10-fold with medium A was added to the control well instead of the compound solution. After culturing at 37° C. in a 5% CO2 stream for 24 hr, the culture solution was centrifuged at 4° C., 1,000 rpm for 3 min and the supernatant was recovered. The content of TNF-α in the supernatant was measured using an ELISA kit (Peprotech) according to a conventional method. The amount of TNF-α produced in the well containing the test compound was determined with the amount of TNF-α produced in the control well as 100, and the suppression rate was calculated for each test.

For a further experiment, the system named is MM.1S cells. Put plainly: Human myeloma cell line MM.1S proliferation suppression test. The settings on record: MM1.S, 72 h, compound 10 μM, 3 days, WST-1 or WST-8, read-out: cell survival rate (% of control) MM.1S. Put shortly: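 Cells at 2×10^5 cells/mL in RPMI1640 + 10% FCS, mixed 1:1 with compound diluted from DMSO stock (final 10 μM) versus DMSO-only control. Cultured 3 days at 37 °C, 5% CO2; proliferation read with WST-1 or WST-8.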

In a further experiment the test system is REC-1 cells. Nature of the experiment: Human mantle cell lymphoma cell line REC-1 proliferation suppression test. As to conditions: Rec1, 72 h, compound 10 μM, 3 days, WST-8, read-out: cell survival rate (% of control) REC-1. Put shortly:
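Cells were plated at 1.3×10^5 cells/mL, and the next day test compound was added at a final 10 μM, with DMSO-only medium as control. After 3 days at 37° C under 5% CO2, proliferation was measured with WST-8.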

The subject of another experiment is Pfeiffer cells. Nature of the experiment: Human diffuse large B-cell lymphoma cell line Pfeiffer proliferation suppression test. The settings on record: 144 h, compound 10 μM, 3 days + re-plating with compound 3 days, WST-8, read-out: cell survival rate (% of control) Pfeiffer. Put shortly:
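Pfeiffer cells were seeded at 1.3×10^5 cells/mL and dosed the next day with compound at 10 μM final (DMSO control), then grown 3 days at 37 °C, 5% CO2. An aliquot was then passaged into a fresh plate with compound re-added at 10 μM final for 3 more days. Proliferation was read by WST-8.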

As to `CC(C)Oc1cscc1-c1cn(C2CCC(=O)NC2=O)nn1` (stereo not shown) [compound 26, 3-[4-(4-isopropoxythiophen-3-yl)-1H-1,2,3-triazol-1-yl]piperidine-2,6-dione], the inhibition at 10 µg/mL in the experiment on TNF-α production amounted to 83%. The viability at 10 µM amounted to 40% in the experiment with MM.1S cells, 23% in the experiment on REC-1 cells and 82% in the experiment on Pfeiffer cells.

In the case of `CC(Oc1cscc1-c1cn(C2CCC(=O)NC2=O)nn1)c1ccccc1` (stereo not shown) [compound 44, 3-{4-[4-(1-phenylethoxy)thiophen-3-yl]-1H-1,2,3-triazol-1-yl}piperidine-2,6-dione], the inhibition at 10 µg/mL in the experiment with TNF-α production is 79%. The figures for the viability at 10 µM in the experiment with MM.1S cells, with REC-1 cells and in the experiment with Pfeiffer cells were 33%, 30% and 94%, respectively.

Regarding `O=C1CCC(n2cc(-c3ccc(Br)s3)nn2)C(=O)N1` (stereo not shown) [compound 12, 3-[4-(5-bromothiophen-2-yl)-1H-1,2,3-triazol-1-yl]piperidine-2,6-dione], the inhibition at 10 µg/mL with TNF-α production is 84%. In addition, the figures for the viability at 10 µM in the experiment on MM.1S cells, in the experiment with REC-1 cells and with Pfeiffer cells were 74%, 77% and 94%, respectively.

Consider `CCCCOc1cscc1-c1cn(C2CCC(=O)NC2=O)nn1` (stereo not shown) [compound 25, 3-[4-(4-butoxythiophen-3-yl)-1H-1,2,3-triazol-1-yl]piperidine-2,6-dione], for which the inhibition at 10 µg/mL in the experiment with TNF-α production was 49%. Besides, the viability at 10 µM with MM.1S cells was determined as 69%; with REC-1 cells, 57%; in the experiment on Pfeiffer cells, 84%.

For `COc1cc(-c2cn(C3CCC(=O)NC3=O)nn2)cs1` (stereo not shown) [compound 20, 3-[4-(5-methoxythiophen-3-yl)-1H-1,2,3-triazol-1-yl]piperidine-2,6-dione], in the experiment on TNF-α production, the inhibition at 10 µg/mL worked out at 87%. Besides, the viability at 10 µM in the experiment on MM.1S cells came to 35%; with REC-1 cells, 22%; with Pfeiffer cells it was 81%.

In the case of `O=C1CCC(n2cc(-c3cscc3OCC3CCCCC3)nn2)C(=O)N1` (stereo not shown) [compound 30, 3-{4-[4-(cyclohexylmethoxy)thiophen-3-yl]-1H-1,2,3-triazol-1-yl}piperidine-2,6-dione], the inhibition at 10 µg/mL in the experiment with TNF-α production came to 79%. The values for the viability at 10 µM in the experiment on MM.1S cells, in the experiment with REC-1 cells and in the experiment with Pfeiffer cells were 59%, 49% and 99%, respectively.

Take `O=C1CCC(n2cc(-c3cscc3OC3CCCC3)nn2)C(=O)N1` (stereo not shown) [compound 27, 3-{4-[4-(cyclopentyloxy)thiophen-3-yl]-1H-1,2,3-triazol-1-yl}piperidine-2,6-dione]: the inhibition at 10 µg/mL in the experiment on TNF-α production amounted to 39%. Moreover, the results for the viability at 10 µM in the experiment with MM.1S cells, in the experiment on REC-1 cells and in the experiment with Pfeiffer cells were 82%, 80% and 98%, respectively.

Turning to `CN(C)Cc1ccc(COc2cscc2-c2cn(C3CCC(=O)NC3=O)nn2)cc1.Cl` (stereo not shown) [compound 46, 3-[4-(4-{4-[(dimethylamino)methyl]benzyloxy}thiophen-3-yl)-1H-1,2,3-triazol-1-yl]piperidine-2,6-dione hydrochloride], the inhibition at 10 µg/mL in the experiment on TNF-α production stood at 80%. Besides, the viability at 10 µM in the experiment with MM.1S cells was 35%; in the experiment on REC-1 cells it was 23%; in the experiment on Pfeiffer cells it was 84%.

`O=C1CCC(n2cc(-c3cccs3)nn2)C(=O)N1` (stereo not shown) [compound 3, 3-[4-(thiophen-2-yl)-1H-1,2,3-triazol-1-yl]piperidine-2,6-dione]: in the experiment with TNF-α production, the inhibition at 10 µg/mL stood at 59%. For the same molecule, the viability at 10 µM in the experiment with MM.1S cells stood at 59%; in the experiment with REC-1 cells, 65%; with Pfeiffer cells it was 96%.

`Cl.O=C1CCC(n2cc(-c3cscc3OCc3ccc(CN4CCCCC4)cc3)nn2)C(=O)N1` (stereo not shown) [compound 42, 3-(4-{4-[4-(piperidin-1-ylmethyl)benzyloxy]thiophen-3-yl}-1H-1,2,3-triazol-1-yl)piperidine-2,6-dione hydrochloride]: in the experiment on TNF-α production, the inhibition at 10 µg/mL was 96%. Besides, the viability at 10 µM in the experiment on MM.1S cells was 27%; in the experiment on REC-1 cells, 13%; with Pfeiffer cells it was 63%.
